Publication PMC4511154 (Journal of molecular microbiology and biotechnology, 2015)

Experiments:
TagK-TF^His6 = TagK-TF^His6 (Bacillus licheniformis, UniProt Q65EY9); assay: coupled assay LacD/TPI/G3PDH, NADH oxidation at […] nm; format: biochemical; conditions: read-out: % residual activity at 10 mM
purified protein = substrate: O=C(COP(=O)(O)O)[C@@H](O)[C@@H](O)[C@H](O)CO; assay: purified protein; format: biochemical, Bacillus licheniformis; conditions: 2 mM ATP, 10 mM MgCl2, 50 mM Tris-HCl pH 8.0, 25 °C

Molecule: O=P(O)(O)OC[C@H]1OC(O)(CO)[C@@H](O)[C@@H]1O (stereo partly drawn) [Fru-6P, D-fructose 6-phosphate]
- remaining activity at 10000 µM (TagK-TF^His6): 69%

Molecule: O=P(O)(O)OC[C@H]1OC(O)(CO)[C@@H](O)[C@H]1O (stereo partly drawn) [Tag-6P, D-tagatose-6-phosphate]
- remaining activity at 10000 µM (TagK-TF^His6): 43%

B1: TagK-TF^His6 (Bacillus licheniformis DSM 13 = ATCC 14580) (protein)
chain: MIYTCTMNTAVDLFVETDELLPDVVNRTKDEDYQPNGKGVNISFMLKRLGLDNTALGFTGGFTGRFIENELLNEKIVTDFVEVEGISRINIFINSTREFKIVNKGPLISEARKQELINKIRQIPPGRFLFISGSLPRGVPDDMYLSLSEIAAENKLKLILDISSPVLLDCLSYHPYLIKPNEQELAAFFSRKKALSEEEIIHCGKELLDRGAERVLISRGKDGALYLDRQRTLKATAAKGKVVNTACAGDAMLAVFVGKQELGCSVPEALRHASAAGSLTAFSKGLGDVSKLDQTASQIQITHL
- Km (purified protein): 3.2 ± 0.4 mM
- kcat (purified protein): 0.44 ± 0.01 s⁻¹
